Measured values: patent publication US9132136B2, “Pharmaceutical combination” (HOFFMANN-LA ROCHE INC., priority 2010, dated 2015)
“Also recorded” adds a separate entry of the source. Structures can show the parent of a compound that is named as a salt. Where two headings read alike, the source gives them in different places.

Assays:
mouse TAAR1 = target: T1, mouse TAAR1 (Mus musculus, UniProt Q923Y8); experiment: In vitro functional activity (cAMP assay) at mouse TAAR1 receptor in recombinant HEK293 cells; assay type: cell-based; conditions: for Emax: HEK293, relative to phenylethylamine having 100% agonistic activity, read-out: % efficacy
T1 construct: expressed in transfected cells
T1 sequence (Q923Y8 whole entry): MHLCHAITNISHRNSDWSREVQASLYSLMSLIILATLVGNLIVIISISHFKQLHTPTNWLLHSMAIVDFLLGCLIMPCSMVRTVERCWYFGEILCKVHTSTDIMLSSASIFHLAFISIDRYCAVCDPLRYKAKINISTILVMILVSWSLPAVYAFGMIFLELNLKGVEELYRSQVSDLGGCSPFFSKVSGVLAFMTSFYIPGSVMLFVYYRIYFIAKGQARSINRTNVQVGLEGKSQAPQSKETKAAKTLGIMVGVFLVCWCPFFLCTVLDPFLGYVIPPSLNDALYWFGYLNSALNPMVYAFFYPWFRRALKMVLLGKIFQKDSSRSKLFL
Description: In Vitro Functional Activity of TAAR1 Agonists at Mouse TAAR1 Receptor
Recombinant HEK293 cells expressing the mouse TAAR1 were grown at 37° C. and 5% CO2/95% air in 250 ml Falcon culture flasks in 30 ml culture medium. The cell culture medium contained DMEM high glucose, fetal calf serum (10%, heat inactivated for 30 min at 56° C.), geneticin G418 (500 μg/ml), and penicillin/streptomycin (1%). Cells were harvested when 80-90% confluent. Then culture medium was then removed from the culture flasks, cells washed once with 5 ml of PBS. After removing the wash solution, 5 ml of trypsin/EDTA solution were added for 5 min at 37° C. Afterwards, 45 ml of culture medium was added to the 5 ml detached cell solution and the total 50 ml transferred into a 50 ml Falcon tube (ref: 2070), the tube was centrifuged at 1300 rpm for 3 min at RT and the culture medium removed. The cell pellet was resuspended in fresh culture medium and brought to 5×10 E5 cells per milliliter. Then the cells were plated in 96-well Plate (BIOCOAT 6640 from Becton Dickinson) with a multipipette (100 μl/well, 50 000 cells/well) and incubated 20 h at 37° C.
The cell culture medium was removed and the cells washed once with PBS. 50 μl of PBS (AMIMED Endotoxine free: 8-05F00-1) with 1 mM IBMX were added and the cells allowed to incubate for 30 min at 37° C. and 5% CO2/95% air. Then 50 μl of a (e.g.) 20 μM compound solution or 50 μl of a 50% beta-PEA stimulation concentration in PBS (AMIMED Endotoxine free) with 1 mM IBMX were added and the cells incubated for 30 min at 37° C. as above again. After the incubation the cells were lysed with 50 μl of the 3× Detection Mix solution containing Ru-cAMP, Alexa700-cAMP Ab and lysis buffer for at least 60 min (better 2 h) at RT under strong shaking. The fluorescence is measured on the NanoScan (10M reader) (Ex. 456 nm, Em. 630 & 700 nm).
Efficacy values (% eff.) are relative to phenylethylamine having 100% agonistic activity.

[1] = Oral glucose tolerance test (oGTT) in male C57Bl6 mice; assay type: in vivo, male C57BL/6J mice
Description: An oral glucose tolerance test (oGTT) was performed in C57Bl6 mice to address potential anti-diabetic effects of TAAR1 agonists. Male C57BL/6J mice (Charles River Laboratories, Lyon, France) were stratified into groups of 8 mice according to body weight. The evening before the animals received 1 g food, this corresponds to a fasting period of about 10 hours. At the experiment day the animals were treated with TAAR1 agonists or placebo (0.3% Tween 80) 45 minutes prior to an oral glucose challenge of 2 g/kg. The main readout was blood glucose measured with Accu-Chek Aviva. In parallel blood samples were taken for insulin determination.

[2] = paediatric patients, cited from earlier work
[3] = 14-day treatment in rats: body weight gain, fat mass (MR relaxometry), food intake
Description: Along with body weight measurement, magnetic resonance (MR) relaxometry was employed to determine, in a noninvasive manner, fat mass composition in the animals.

[4] = tested on: cocaine-induced hyperlocomotor activity in mice; experiment: Cocaine-induced locomotion test in mice; assay type: in vivo
[5] = tested on: L-687414-induced hyperlocomotion in mice; experiment: L-687414-induced locomotion test in mice; assay type: in vivo
[6] = HEK293 cells expressing mouse TAAR1, cAMP assay, read-out: EC50
[7] = 14 days, olanzapine 2 mg/kg p.o.
[8] = 0.3 and 1 mg/kg p.o., vs vehicle
[9] = 14 days, 1 mg/kg p.o., vs vehicle
[10] = 14 days, 3 and 10 mg/kg p.o., vs vehicle
[11] = 10 and 30 mg/kg p.o., vs vehicle
[12] = 0.1 and 0.3 mg/kg p.o., vs vehicle

With `NC1=N[C@@H](CCc2ccc(NC(=O)c3ccc(Cl)cc3)cc2)CO1` [Example S11, N-{4-[2-((S)-2-Amino-4,5-dihydro-oxazol-4-yl)-ethyl]-phenyl}-4-chloro-benzamide] the Emax (mouse TAAR1) was 45%, the EC50 (mouse TAAR1; [6]) was 0.1 nM and the “glucose AUC (0-60 min) during oGTT” value ([1]; 1 and 3 mg/kg p.o., vs vehicle) was “markedly lowered”.
With `CCN(C[C@H]1COC(N)=N1)c1ccccc1` [Example S4, (S)-4-[(Ethyl-phenyl-amino)-methyl]-4,5-dihydro-oxazol-2-ylamine] the Emax (mouse TAAR1) was 65%, the EC50 (mouse TAAR1; [6]) was 3.3 nM and the “glucose AUC (0-60 min) during oGTT” value ([1]; 0.3 mg/kg p.o., vs vehicle) was “markedly lowered”. For the same compound, the “insulin AUC (0-60 min) during oGTT” value ([1]; 0.3 mg/kg p.o., vs vehicle) was “markedly lowered”.
For `OCCOCCN1CCN(C2=Nc3ccccc3Sc3ccccc32)CC1` [quetiapine], the “incidence rates of hyperglycaemia and the metabolic syndrome” value [2] is given as “modestly higher incidence rates” and the “adverse metabolic baseline-to-endpoint changes (total cholesterol, triglycerides, non-HDL cholesterol, ratio of triglycerides to HDL cholesterol)” value ([2]; study period) is given as “reached statistical significance”.
In the case of `NC1=N[C@@H](c2ccc(Cl)cc2C(F)(F)F)CO1` [Example S3, (+)-(S)-4-(4-Chloro-2-trifluoromethyl-phenyl)-4,5-dihydro-oxazol-2-ylamine], the EC50 (mouse TAAR1) is reported as 1.3 nM, the Emax (mouse TAAR1) is reported as 67% and the “glucose AUC (0-60 min) during oGTT” value ([1]; 1 and 3 mg/kg p.o., vs vehicle) is reported as “markedly lowered”. For the same compound, the “insulin AUC (0-60 min) during oGTT” value ([1]; 1 and 3 mg/kg p.o., vs vehicle) was “markedly lowered”.
In the case of `Cc1cc(C(=O)Nc2ccc([C@@H]3CNCCO3)cc2)cc(Cl)n1` [Example S12, (R)-2-Chloro-6-methyl-N-(4-(morpholin-2-yl)phenyl)isonicotinamide hydrochloride], the Emax (mouse TAAR1) is reported as 69%, the EC50 (mouse TAAR1; [6]) is reported as 3.1 nM and the “glucose AUC (0-60 min) during oGTT” value ([1]; 3 mg/kg p.o., vs vehicle) is reported as “markedly lowered”.
In the case of `O=C(Nc1ccc([C@H]2CNCCO2)cc1)c1ccnc(C(F)(F)F)c1` [Example S14, (S)—N-(4-(Morpholin-2-yl)phenyl)-2-(trifluoromethyl)isonicotinamide hydrochloride], the Emax (mouse TAAR1) is reported as 55%, the EC50 (mouse TAAR1; [6]) is reported as 4.6 nM and the “glucose AUC (0-60 min) during oGTT” value ([1]; 1 mg/kg p.o., vs vehicle) is reported as “markedly lowered”.
In the case of `O=C(Nc1ccc(C2CCNC2)cc1)Nc1ccc(Cl)cn1` (racemic) [Example S7, (RS)-1-(5-Chloro-pyridin-2-yl)-3-(4-pyrrolidin-3-yl-phenyl)-urea hydrochloride], the Emax (mouse TAAR1) is reported as 57%, the EC50 (mouse TAAR1; [6]) is reported as 0.8 nM and the “glucose AUC (0-60 min) during oGTT” value ([1]; 10 mg/kg p.o., vs vehicle) is reported as “markedly lowered”.
With `Cc1cc2c(s1)Nc1ccccc1N=C2N1CCN(C)CC1` [olanzapine, reference compound] the food intake [3, 7] was “increase”, the weight gain [3, 7] was “increase” and the “Cumulative food intake ± SEM” value ([3]; Study 2, olanzapine 2 mg/kg) was 301.6 ± 8.6 g. The “incidence rates of hyperglycaemia and the metabolic syndrome” value [2] was “highest incidence rates”.
For `Cc1c(F)cccc1[C@H]1COC(N)=N1` [Example S2, (S)-4-(3-fluoro-2-methyl-phenyl)-4,5-dihydro-oxazol-2-ylamine], the Emax (mouse TAAR1) was 65%, the EC50 (mouse TAAR1; [6]) was 1.8 nM and the cocaine-induced hyperlocomotor activity ([4]; 1 and 3 mg/kg p.o.) was “significantly antagonized”. For the same compound, the “effects on baseline locomotor activity” value ([4]; doses that antagonized cocaine (1 and 3 mg/kg p.o.)) was “modest effects”, the cocaine-induced hyperlocomotor activity ([4]; tested alone, 0.3 mg/kg p.o., 0.3 mg/kg) was “partially active; also recorded: partially antagonized” and the “glucose AUC (0-60 min) during oGTT” value [1, 8] was “markedly lowered”. The “insulin AUC (0-60 min) during oGTT” value [1, 8] was “markedly lowered”, the L-687414-induced hyperlocomotion ([5]; acute, 0.00003-1 mg/kg p.o.) was “dose-dependently antagonized; also recorded: fully antagonized” and the L-687414-induced locomotor activity ([5]; alone, 0.001 mg/kg p.o.) was “partially active”. The fat mass [3, 9] was “No significant effect”, the food intake [3, 9] was “No significant effect” and the weight gain ([3]; 14 days, 1 mg/kg p.o., vs vehicle, 1 mg/kg) was “No significant effect and not”. For the same compound, the food intake ([3]; 14 days, 10 mg/kg) was “significant reduction”, the “weight loss compared to pre-treatment values” ([3]; 14 days, 3 and 10 mg/kg p.o.) was “without inducing weight loss” and the fat mass [3, 10] was “reduced”. For the same compound, the food intake [3, 10] was “reduced”, the weight gain [3, 10] was “reduced” and the “Cumulative food intake ± SEM” value ([3]; Study 1, 3 mg/kg) was 233.8 ± 7.4 g. The “Cumulative food intake ± SEM” value ([3]; Study 1, 10 mg/kg) was 217.0 ± 7.3 g and the “Cumulative food intake ± SEM” value ([3]; Study 2, 1 mg/kg) was 248.8 ± 5.0 g.
In the case of `O=C(NCc1ccc(F)cc1)Nc1ccc([C@H]2CNCCO2)cc1` [Example S15, (S)-1-(4-Fluorobenzyl)-3-(4-(morpholin-2-yl)phenyl)urea hydrochloride], the Emax (mouse TAAR1) is reported as 40%, the EC50 (mouse TAAR1; [6]) is reported as 0.6 nM and the “glucose AUC (0-60 min) during oGTT” value ([1]; 1 mg/kg p.o., vs vehicle) is reported as “markedly lowered”.
With `NC1=N[C@@H](CCc2ccc(NC(=O)c3ncc(Cl)cn3)cc2)CO1` [Example S10, 5-Chloro-pyrimidine-2-carboxylic acid {4-[2-((S)-2-amino-4,5-dihydro-oxazol-4-yl)-ethyl]-phenyl}-amide] the Emax (mouse TAAR1) was 32%, the EC50 (mouse TAAR1; [6]) was 1.6 nM and the “glucose AUC (0-60 min) during oGTT” value ([1]; 10 mg/kg p.o., vs vehicle) was “markedly lowered”.
For `C[C@H](OC[C@H]1COC(N)=N1)c1ccc(F)cc1` [Example S9, (S)-4-[(S)-1-(4-Fluoro-phenyl)-ethoxymethyl]-4,5-dihydro-oxazol-2-ylamine], the Emax (mouse TAAR1) was 99%, the EC50 (mouse TAAR1; [6]) was 1.7 nM and the “glucose AUC (0-60 min) during oGTT” value ([1]; 10 mg/kg p.o., vs vehicle) was “markedly lowered”.
With `O=C(Nc1ccc(C2CCNC2)cc1)c1ccc(Cl)cc1` (racemic) [Example S6, (RS)-4-Chloro-N-(4-pyrrolidin-3-yl-phenyl)-benzamide hydrochloride] the Emax (mouse TAAR1) was 78%, the EC50 (mouse TAAR1; [6]) was 1.4 nM and the “glucose AUC (0-60 min) during oGTT” value [1, 11] was “markedly lowered”.
In the case of `CC[C@@H](C[C@H]1COC(N)=N1)Oc1cccc(O)c1` [Example S5, 3-[(S)-1-((S)-2-Amino-4,5-dihydro-oxazol-4-ylmethyl)-propoxy]-phenol], the Emax (mouse TAAR1) is reported as 51%, the EC50 (mouse TAAR1; [6]) is reported as 1.6 nM and the “glucose AUC (0-60 min) during oGTT” value ([1]; 30 mg/kg p.o., vs vehicle) is reported as “markedly lowered”.
For `Cc1nc2n(c(=O)c1CCN1CCC(c3noc4cc(F)ccc34)CC1)CCCC2` [risperidone], the levels of triglycerides ([2]; study period) is listed as “increased significantly”.
In the case of `N#Cc1cccc(NC(=O)Nc2ccc([C@H]3CNCCO3)cc2)c1` [Example S16, (S)-1-(3-Cyanophenyl)-3-(4-(morpholin-2-yl)phenyl)urea hydrochloride], the Emax (mouse TAAR1) is reported as 60%, the EC50 (mouse TAAR1; [6]) is reported as 0.4 nM and the “glucose AUC (0-60 min) during oGTT” value ([1]; 1 mg/kg p.o., vs vehicle) is reported as “markedly lowered”.
With `O=C(Nc1ccc([C@H]2CNCCO2)cc1)c1ccc(OCC(F)(F)F)nc1` [Example S13, (S)—N-(4-(Morpholin-2-yl)phenyl)-6-(2,2,2-trifluoroethoxy)nicotinamide hydrochloride] the Emax (mouse TAAR1) was 54%, the EC50 (mouse TAAR1; [6]) was 1.6 nM and the “glucose AUC (0-60 min) during oGTT” value ([1]; 3 mg/kg p.o., vs vehicle) was “markedly lowered”.
In the case of `O=C(Nc1ccc(C2CCNC2)cc1)c1ccc(Cl)cn1` (racemic) [Example S8, (RS)-5-Chloro-pyridine-2-carboxylic acid (4-pyrrolidin-3-yl-phenyl)-amide hydrochloride], the Emax (mouse TAAR1) is reported as 65%, the EC50 (mouse TAAR1; [6]) is reported as 7.4 nM and the “glucose AUC (0-60 min) during oGTT” value [1, 11] is reported as “markedly lowered”.
For `CC[C@@H](C[C@H]1COC(N)=N1)c1ccccc1` [Example S1, (S)-4-((S)-2-Phenyl-butyl)-4,5-dihydro-oxazol-2-ylamine], the Emax (mouse TAAR1) was 90%, the EC50 (mouse TAAR1; [6]) was 2 nM and the cocaine-induced hyperlocomotor activity ([4]; tested alone, 0.1 mg/kg p.o.) was “partially antagonized”. For the same compound, the fasting glucose levels [1] was “No effect”, the “glucose AUC (0-60 min) during oGTT (blood glucose excursion)” value [1, 12] was “significantly lowered; also recorded: markedly lowered” and the “insulin AUC (0-60 min) during oGTT (insulin excursion)” value [1, 12] was “significantly lower; also recorded: markedly lowered”.
With `O=C(Nc1ccc([C@H]2CNCCO2)cc1)c1ccc(Cl)nc1` [Example S17, (S)-6-Chloro-N-(4-(morpholin-2-yl)phenyl)nicotinamide hydrochloride] the Emax (mouse TAAR1) was 39%, the EC50 (mouse TAAR1; [6]) was 1.8 nM and the “glucose AUC (0-60 min) during oGTT” value [1, 8] was “markedly lowered”.
For `O=C1CCc2ccc(OCCCCN3CCN(c4cccc(Cl)c4Cl)CC3)cc2N1` [aripiprazole], the “adverse metabolic baseline-to-endpoint changes (total cholesterol, triglycerides, non-HDL cholesterol, ratio of triglycerides to HDL cholesterol)” value ([2]; study period) is given as “not significant”.
